BindingDB's records for doi:10.1002/(SICI)1098-2396(200002)35:2<79::AID-SYN1>3.0.CO;2-X (Institut De Recherches Servier, 2000)
Several values for one entry are separate records, joined by “and”; a condition that tells them apart may be missing. Equal values may be shown once.

Tests used:
D(3) dopamine receptor = D(3) dopamine receptor (Homo sapiens, UniProt P35462)
[1] = molecular target: T1, Alpha-1D adrenergic receptor (Homo sapiens, UniProt P25100)
T1 sequence (P25100 whole entry): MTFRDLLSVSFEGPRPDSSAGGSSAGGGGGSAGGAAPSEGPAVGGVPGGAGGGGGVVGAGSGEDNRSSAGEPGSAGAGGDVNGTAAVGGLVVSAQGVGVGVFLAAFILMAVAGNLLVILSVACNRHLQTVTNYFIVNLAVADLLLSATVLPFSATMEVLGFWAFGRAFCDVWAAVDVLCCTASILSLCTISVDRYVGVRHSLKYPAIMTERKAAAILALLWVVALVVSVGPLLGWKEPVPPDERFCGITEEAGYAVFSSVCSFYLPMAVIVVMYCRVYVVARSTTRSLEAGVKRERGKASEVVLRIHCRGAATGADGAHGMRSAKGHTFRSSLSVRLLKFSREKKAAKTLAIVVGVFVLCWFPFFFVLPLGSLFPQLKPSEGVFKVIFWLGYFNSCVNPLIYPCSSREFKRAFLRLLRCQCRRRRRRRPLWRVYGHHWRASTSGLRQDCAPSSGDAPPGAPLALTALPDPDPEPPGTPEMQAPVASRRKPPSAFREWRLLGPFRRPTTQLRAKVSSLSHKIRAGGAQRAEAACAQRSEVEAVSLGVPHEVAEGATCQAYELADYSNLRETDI

[2] = molecular target: T2, Alpha-1A adrenergic receptor (Rattus norvegicus, UniProt P43140)
T2 sequence (P43140 whole entry): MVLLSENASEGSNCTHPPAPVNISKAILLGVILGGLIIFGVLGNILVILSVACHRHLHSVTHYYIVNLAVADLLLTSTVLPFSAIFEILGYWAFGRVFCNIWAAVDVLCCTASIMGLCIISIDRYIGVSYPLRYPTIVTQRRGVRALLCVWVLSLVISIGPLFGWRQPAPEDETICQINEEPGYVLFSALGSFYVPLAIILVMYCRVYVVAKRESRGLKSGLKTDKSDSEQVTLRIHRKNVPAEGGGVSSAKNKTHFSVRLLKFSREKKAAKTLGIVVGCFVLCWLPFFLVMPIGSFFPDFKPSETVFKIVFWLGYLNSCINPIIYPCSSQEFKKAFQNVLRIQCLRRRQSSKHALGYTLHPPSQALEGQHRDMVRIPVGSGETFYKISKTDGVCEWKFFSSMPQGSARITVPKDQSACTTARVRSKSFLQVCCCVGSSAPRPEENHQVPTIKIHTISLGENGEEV

[3] = molecular target: T3, Alpha-1B adrenergic receptor (Homo sapiens, UniProt P35368)
T3 sequence (P35368 whole entry): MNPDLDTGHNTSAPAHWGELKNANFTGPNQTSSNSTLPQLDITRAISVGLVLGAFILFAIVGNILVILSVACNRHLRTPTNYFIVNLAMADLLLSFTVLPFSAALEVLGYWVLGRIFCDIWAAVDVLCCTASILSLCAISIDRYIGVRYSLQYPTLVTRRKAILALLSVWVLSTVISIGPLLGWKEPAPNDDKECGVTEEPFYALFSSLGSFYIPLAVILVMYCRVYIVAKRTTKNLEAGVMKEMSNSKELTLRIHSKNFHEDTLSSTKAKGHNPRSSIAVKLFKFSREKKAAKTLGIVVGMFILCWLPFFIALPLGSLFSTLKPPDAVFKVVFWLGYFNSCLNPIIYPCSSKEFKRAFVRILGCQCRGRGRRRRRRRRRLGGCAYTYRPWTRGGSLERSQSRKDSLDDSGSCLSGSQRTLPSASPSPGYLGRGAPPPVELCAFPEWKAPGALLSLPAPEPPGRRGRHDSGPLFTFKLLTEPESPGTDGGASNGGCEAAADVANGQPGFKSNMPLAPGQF

[4] = molecular target: T4, Alpha-1A adrenergic receptor (Homo sapiens, UniProt P35348)
T4 sequence (P35348 whole entry): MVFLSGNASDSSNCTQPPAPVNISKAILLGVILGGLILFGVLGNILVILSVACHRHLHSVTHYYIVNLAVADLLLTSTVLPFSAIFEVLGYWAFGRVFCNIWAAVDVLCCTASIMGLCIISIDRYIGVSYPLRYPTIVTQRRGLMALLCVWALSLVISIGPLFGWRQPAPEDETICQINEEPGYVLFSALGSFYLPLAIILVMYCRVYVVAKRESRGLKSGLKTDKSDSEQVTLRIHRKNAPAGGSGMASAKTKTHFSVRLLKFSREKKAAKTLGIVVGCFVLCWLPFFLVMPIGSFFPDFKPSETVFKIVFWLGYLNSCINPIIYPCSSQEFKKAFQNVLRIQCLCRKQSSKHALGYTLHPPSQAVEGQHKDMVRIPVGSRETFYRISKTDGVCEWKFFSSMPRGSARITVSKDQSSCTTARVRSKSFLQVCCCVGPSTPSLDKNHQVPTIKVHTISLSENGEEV

[5] = molecular target: T5, Alpha-2A adrenergic receptor (Homo sapiens, UniProt P08913)
T5 sequence (P08913 whole entry): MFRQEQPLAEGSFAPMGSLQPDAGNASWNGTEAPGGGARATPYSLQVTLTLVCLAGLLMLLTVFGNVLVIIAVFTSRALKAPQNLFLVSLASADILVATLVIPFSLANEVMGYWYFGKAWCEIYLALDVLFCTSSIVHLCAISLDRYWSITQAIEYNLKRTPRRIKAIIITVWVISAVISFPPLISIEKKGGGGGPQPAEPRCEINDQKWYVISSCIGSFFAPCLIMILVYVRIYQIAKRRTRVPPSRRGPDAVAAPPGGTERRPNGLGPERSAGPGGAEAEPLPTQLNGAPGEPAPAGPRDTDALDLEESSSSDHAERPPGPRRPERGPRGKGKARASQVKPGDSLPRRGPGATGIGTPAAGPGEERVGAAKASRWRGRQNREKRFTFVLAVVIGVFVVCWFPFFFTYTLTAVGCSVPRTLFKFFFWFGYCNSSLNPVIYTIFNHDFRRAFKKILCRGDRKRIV

D(3) dopamine receptor, sequence (P35462 as listed by the source): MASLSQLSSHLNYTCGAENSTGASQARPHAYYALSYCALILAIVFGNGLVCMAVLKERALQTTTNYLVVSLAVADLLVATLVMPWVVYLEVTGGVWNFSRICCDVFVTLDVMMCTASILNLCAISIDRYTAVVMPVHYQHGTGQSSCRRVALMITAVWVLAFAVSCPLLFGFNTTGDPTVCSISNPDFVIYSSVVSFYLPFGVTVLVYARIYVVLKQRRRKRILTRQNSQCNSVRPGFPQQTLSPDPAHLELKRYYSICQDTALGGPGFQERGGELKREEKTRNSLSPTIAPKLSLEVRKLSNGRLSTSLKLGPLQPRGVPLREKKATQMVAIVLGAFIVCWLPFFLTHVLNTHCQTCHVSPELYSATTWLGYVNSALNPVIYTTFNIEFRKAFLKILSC

Fc1cccc2c1OC1CNCC1O2 (stereo unspecified) [CAS_105182-45-4]
Ki (D(3) dopamine receptor): 1000 nM | Ki [1]: 126 nM | Ki [2]: 794 nM | Ki [3]: 1000 nM | Ki [4]: 501 nM | Ki [5]: 7.94 nM and 6.3 nM
